Results reported in ChEMBL document CHEMBL4265887 (Bioorg Med Chem Lett, 2018).
Values after ≈ are worked out from the molar mass of the structure shown. Active and inactive are the calls of the source. The calls are words filed in the database; no cut-off is given here.

Legend:
HCT-15 = test: Cytotoxicity against human HCT15 cells assessed as reduction in cell viability after 48 hrs by MTT assay; format: functional, cell-based; conditions: HCT-15, 48 h
HCT-116 [1] = test: Cytotoxicity against human HCT116 cells assessed as reduction in cell viability after 48 hrs by MTT assay; format: functional, cell-based; conditions: HCT-116, 48 h
[2] = Solubility of the compound in phosphate buffer of pH 7.4 after 24 hrs by RP-HPLC analysis; format: physicochemical; conditions: for solubility at 24 h: phosphate buffer, pH 7.4
[3] = Solubility of the compound in phosphate buffer of pH 2 after 24 hrs by RP-HPLC analysis; format: physicochemical
HCT-116 [4] = test: Inhibition of cytokinesis in human HCT116 cells at 1 uM after 24 hrs by propidium iodide/RNase staining-based flow cytometric analysis; format: functional, cell-based
HCT-116 [5] = test: Induction of apoptosis in human HCT116 cells at 1 uM after 72 hrs by Annexin V-FITC/propidium iodide staining-based flow cytometric analysis; format: functional, cell-based
Aurora kinase A = target: T1, Aurora kinase A (Homo sapiens, UniProt O14965); test: Inhibition of recombinant Aurora A (unknown origin) using TAMRA-PKAtide as substrate after 30 mins by fluorescence polarization assay
T1 sequence (O14965 whole entry): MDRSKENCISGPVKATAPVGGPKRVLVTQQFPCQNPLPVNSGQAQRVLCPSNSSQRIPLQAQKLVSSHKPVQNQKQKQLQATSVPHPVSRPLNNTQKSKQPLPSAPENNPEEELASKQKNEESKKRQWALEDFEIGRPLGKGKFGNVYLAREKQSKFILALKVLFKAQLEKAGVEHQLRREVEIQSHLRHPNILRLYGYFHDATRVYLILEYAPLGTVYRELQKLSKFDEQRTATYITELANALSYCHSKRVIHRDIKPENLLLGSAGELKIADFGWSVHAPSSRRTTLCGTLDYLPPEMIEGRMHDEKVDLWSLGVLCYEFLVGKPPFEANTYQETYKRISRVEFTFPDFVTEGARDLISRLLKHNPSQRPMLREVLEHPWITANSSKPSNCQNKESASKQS

HCT-116 [6] = test: Induction of apoptosis in human HCT116 cells at 100 nM after 72 hrs by Annexin V-FITC staining-based flow cytometric analysis; format: functional, cell-based
HCT-116 [7] = test: Inhibition of cytokinesis in human HCT116 cells at 100 nM after 24 hrs by propidium iodide/RNase staining-based flow cytometric analysis; format: functional, cell-based
Aurora kinase B [8] = target: T2, Aurora kinase B (Homo sapiens, UniProt Q96GD4); test: Inhibition of recombinant Aurora B (unknown origin) using TAMRA-PKAtide as substrate after 1 hr by fluorescence polarization assay
T2 sequence (Q96GD4 whole entry): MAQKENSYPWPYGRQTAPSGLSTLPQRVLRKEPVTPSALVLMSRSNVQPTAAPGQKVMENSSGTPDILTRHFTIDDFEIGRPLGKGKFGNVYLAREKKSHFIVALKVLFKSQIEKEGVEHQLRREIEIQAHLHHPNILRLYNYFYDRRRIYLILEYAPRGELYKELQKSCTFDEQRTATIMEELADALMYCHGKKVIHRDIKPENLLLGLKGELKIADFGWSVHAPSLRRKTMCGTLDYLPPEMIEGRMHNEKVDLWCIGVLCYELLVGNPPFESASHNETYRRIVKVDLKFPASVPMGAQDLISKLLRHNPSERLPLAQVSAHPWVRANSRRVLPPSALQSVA

Aurora kinase B [9] = target: T2, Aurora kinase B; test: Inhibition of Aurora B phosphorylation at Thr232 residue in human HCT116 cells over 100 nM after 3 hrs by Western blot method; format: cell-based

solubility at 24 h [2] [µM] | solubility at 24 h [3] [µM] | SMILES | IC50 (HCT-15) [µM] | IC50 (HCT-116 [1]) [nM] | also measured
– | – | CNC(=O)Nc1sc2c(C)cc(NS(=O)(=O)c3ccn(C)n3)cc2c1C(N)=O | > 10 | 9780 | –
– | – | CC(C)c1cc(NS(C)(=O)=O)cc2c(C(N)=O)c(NC(=O)C3CC3)sc12 | – | 1390 | –
4.6 (≈ 1.96 µg/mL) | 4.3 (≈ 1.83 µg/mL) | CCCCS(=O)(=O)Nc1cc(C(C)C)c2sc(NC(=O)NC)c(C(N)=O)c2c1 | 4.04 | 950 | –
– | – | CNC(=O)Nc1sc2c(C(C)C)cc(NS(=O)(=O)c3ccccc3C)cc2c1C(N)=O | – | 1770 | –
1.1 (≈ 0.496 µg/mL) | – | CNC(=O)Nc1sc2c(C3CC3)cc(NS(=O)(=O)c3cccs3)cc2c1C(N)=O | – | 1530 | –
– | – | CNC(=O)Nc1sc2c(C(C)C)cc(NS(=O)(=O)c3ccc(Cl)cc3)cc2c1C(N)=O | – | 7000 | –
– | – | CNC(=O)Nc1sc2c(C(C)C)cc(NS(=O)(=O)C(C)C)cc2c1C(N)=O | 8.66 | 2580 | –
– | – | CNC(=O)Nc1sc2c(C(C)C)cc(NS(=O)(=O)c3ccccc3Cl)cc2c1C(N)=O | – | 3410 | –
– | – | CC(C)c1cc(NS(=O)(=O)C2CCCCC2)cc2c(C(N)=O)c(NC(=O)C3CC3)sc12 | – | 9980 | –
3.6 (≈ 1.66 µg/mL) | 2.6 (≈ 1.2 µg/mL) | CNC(=O)Nc1sc2c(C(C)C)cc(NS(=O)(=O)c3cccc(C)c3)cc2c1C(N)=O | 1.68 | 470 | Cytokinesis inhibition (active/inactive call) (HCT-116 [4]): Active; Activity (HCT-116 [5]): Active; IC50 (Aurora kinase A): 95 nM; Activity (HCT-116 [6]): Active; Cytokinesis inhibition (active/inactive call) (HCT-116 [7]): Active; IC50 (Aurora kinase B [8]): 46 nM
98.2 (≈ 46.9 µg/mL) | 5.8 (≈ 2.77 µg/mL) | O=C(O)c1ccc(Nc2ncc3c(n2)-c2ccc(Cl)cc2C(c2c(F)cccc2F)=NC3)cc1 [MLN-8054] | – | 850 | Activity (HCT-116 [5]): inactive; Activity (HCT-116 [6]): inactive; inhibition (Aurora kinase B [9]): Active
– | – | CCCNS(=O)(=O)Nc1cc(C(C)C)c2sc(NC(=O)NC)c(C(N)=O)c2c1 | 4.71 | 410 | Cytokinesis inhibition (active/inactive call) (HCT-116 [4]): Active; Activity (HCT-116 [5]): inactive; IC50 (Aurora kinase A): 21 nM; Activity (HCT-116 [6]): inactive; Cytokinesis inhibition (active/inactive call) (HCT-116 [7]): Active; IC50 (Aurora kinase B [8]): 11 nM
6.7 (≈ 2.92 µg/mL) | 3.3 (≈ 1.44 µg/mL) | CNC(=O)Nc1sc2c(C(C)C)cc(NS(=O)(=O)c3ccco3)cc2c1C(N)=O | – | 1300 | –
6.2 (≈ 2.79 µg/mL) | 4.2 (≈ 1.89 µg/mL) | CNC(=O)Nc1sc2c(C(C)C)cc(NS(=O)(=O)c3ccn(C)n3)cc2c1C(N)=O | 6.13 | 560 | Cytokinesis inhibition (active/inactive call) (HCT-116 [4]): Active; Activity (HCT-116 [5]): Active; IC50 (Aurora kinase A): 5 nM; Activity (HCT-116 [6]): Active; Cytokinesis inhibition (active/inactive call) (HCT-116 [7]): Active; IC50 (Aurora kinase B [8]): 17 nM
– | 120 (≈ 55.8 µg/mL) | Cc1cc(Nc2cc(N3CCN(C)CC3)nc(Sc3ccc(NC(=O)C4CC4)cc3)n2)[nH]n1 [TOZASERTIB] | – | – | solubility ([2]; buffer, pH 7.4, 24 h): 120 µM (≈ 55.8 µg/mL)
– | – | CNC(=O)Nc1sc2c(C(C)C)cc(NS(=O)(=O)c3ccc(C)s3)cc2c1C(N)=O | 4.1 | 2330 | –
– | – | CCS(=O)(=O)Nc1cc(C(C)C)c2sc(NC(=O)C3CC3)c(C(N)=O)c2c1 | – | 2360 | –

solubility at 24 h [2] [µM] | solubility at 24 h [3] [µM] | SMILES | IC50 (HCT-15) [µM] | IC50 (HCT-116 [1]) [nM] | also measured
3.9 (≈ 1.59 µg/mL) | 1.1 (≈ 0.449 µg/mL) | CNC(=O)Nc1sc2c(C)cc(NS(=O)(=O)c3ccco3)cc2c1C(N)=O | 1.51 | 950 | –
13.6 (≈ 5.42 µg/mL) | 11.4 (≈ 4.54 µg/mL) | CCS(=O)(=O)Nc1cc(C(C)C)c2sc(NC(=O)NC)c(C(N)=O)c2c1 | 4.98 | 600 | Cytokinesis inhibition (active/inactive call) (HCT-116 [4]): Active; Activity (HCT-116 [5]): inactive; IC50 (Aurora kinase A): 24 nM; Activity (HCT-116 [6]): inactive; Cytokinesis inhibition (active/inactive call) (HCT-116 [7]): Active; IC50 (Aurora kinase B [8]): 38 nM
– | – | Cc1cc(Nc2cc(N3CCN(C)CC3)nc(Sc3ccc(NC(=O)C4CC4)cc3)n2)n[nH]1 [TOZASERTIB] | 1.23 | 450 | Cytokinesis inhibition (active/inactive call) (HCT-116 [4]): Active; Cytokinesis inhibition (active/inactive call) (HCT-116 [7]): Active
– | – | CC(C)c1cc(NS(=O)(=O)c2ccccc2)cc2c(C(N)=O)c(NC(=O)C3CC3)sc12 | – | 1390 | IC50 (Aurora kinase A): 827 nM; IC50 (Aurora kinase B [8]): 417 nM
12.8 (≈ 5.43 µg/mL) | 5.3 (≈ 2.25 µg/mL) | CNC(=O)Nc1sc2c(C)cc(NS(=O)(=O)c3cccs3)cc2c1C(N)=O | 2.19 | 790 | –
– | – | Cc1cccc(S(=O)(=O)Nc2cc(C(C)C)c3sc(NC(=O)C4CC4)c(C(N)=O)c3c2)c1 | – | 9010 | –
– | – | CCCS(=O)(=O)Nc1cc(C(C)C)c2sc(NC(=O)C3CC3)c(C(N)=O)c2c1 | – | 6200 | –
– | – | CC(C)c1cc(NS(=O)(=O)c2ccn(C)n2)cc2c(C(N)=O)c(NC(=O)C3CC3)sc12 | 1.26 | 760 | –
4.8 (≈ 2.15 µg/mL) | 3.7 (≈ 1.66 µg/mL) | CNC(=O)Nc1sc2c(C3CC3)cc(NS(=O)(=O)c3ccn(C)n3)cc2c1C(N)=O | – | 1190 | –
– | – | CNC(=O)Nc1sc2c(C)cc(NS(=O)(=O)c3ccc(C)s3)cc2c1C(N)=O | – | 2360 | –
1.4 (≈ 0.653 µg/mL) | 1.6 (≈ 0.747 µg/mL) | CNC(=O)Nc1sc2c(C(C)C)cc(NS(=O)(=O)c3cc(C)cs3)cc2c1C(N)=O | 1.68 | 340 | Cytokinesis inhibition (active/inactive call) (HCT-116 [4]): Active; Activity (HCT-116 [5]): Active; IC50 (Aurora kinase A): 80 nM; Activity (HCT-116 [6]): Active; Cytokinesis inhibition (active/inactive call) (HCT-116 [7]): Active; IC50 (Aurora kinase B [8]): 48 nM
– | – | CC(C)c1cc(NS(=O)(=O)c2cccs2)cc2c(C(N)=O)c(NC(=O)C3CC3)sc12 | – | 4580 | –
1.7 (≈ 0.759 µg/mL) | 1.3 (≈ 0.581 µg/mL) | CNC(=O)Nc1sc2c(C(C)C)cc(NS(=O)(=O)c3ccccc3)cc2c1C(N)=O | 0.89 | 310 | Cytokinesis inhibition (active/inactive call) (HCT-116 [4]): Active; Activity (HCT-116 [5]): Active; IC50 (Aurora kinase A): 37 nM; Activity (HCT-116 [6]): Active; Cytokinesis inhibition (active/inactive call) (HCT-116 [7]): Active; IC50 (Aurora kinase B [8]): 35 nM
– | – | CNC(=O)Nc1sc2c(C(C)C)cc(NS(C)(=O)=O)cc2c1C(N)=O | 4.18 | 1470 | –
3 (≈ 1.24 µg/mL) | 2.8 (≈ 1.16 µg/mL) | CCCS(=O)(=O)Nc1cc(C(C)C)c2sc(NC(=O)NC)c(C(N)=O)c2c1 | 4.44 | 770 | –
– | – | CNC(=O)Nc1sc2c(C(C)C)cc(NS(=O)(=O)c3ccc(C)cc3)cc2c1C(N)=O | – | 3800 | –
– | – | CNC(=O)Nc1sc2c(C(C)C)cc(NS(=O)(=O)c3cccc(Cl)c3)cc2c1C(N)=O | 5.66 | 1020 | –
